≈ marks a conversion by molar mass, not a printed value.
Key:
Type in all cases: cell-based
S. aureus (ATCC 29213) = test: Antibacterial susceptibility testing (MIC, broth microdilution or agar dilution), S. aureus; conditions: Staphylococcus aureus, ATCC29213; read-out: S. aureus (ATCC 29213) minimal inhibitory concentration (MIC)
In short: (§1)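 MICs by CLSI (M7-A7) broth microdilution or agar dilution, against reference ATCC strains as listed.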

E. faecalis (ATCC 29212) = test: Antibacterial susceptibility testing (MIC, broth microdilution or agar dilution), E. faecalis; conditions: Enterococcus faecalis, ATCC29212; read-out: E. faecalis (ATCC 29212) minimal inhibitory concentration (MIC)
In short: as §1

S. pyogenes (ATCC 51339) = test: Antibacterial susceptibility testing (MIC, broth microdilution or agar dilution), S. pyogenes; conditions: Streptococcus pyogenes, ATCC51339; read-out: S. pyogenes (ATCC 51339) minimal inhibitory concentration (MIC)
In short: as §1

[1] = test system: H. influenzae (ATCC 49247); test: Antibacterial susceptibility testing (MIC, broth microdilution or agar dilution), H. influenzae; conditions: Haemophilus influenzae, ATCC49247; read-out: H. influenzae (ATCC 49247) minimal inhibitory concentration (MIC)
Procedure: Compounds of the invention were tested for antimicrobial activity by susceptibility testing in liquid or on solid media. MICs for compounds against each strain were determined by the broth microdilution or agar dilution method according to the guidelines of the Clinical Laboratories and Standards Institute, formerly the National Committee for Clinical Laboratory Standards (Clinical Laboratories and Standards Institute. Methods for Dilution Antimicrobial Susceptibility Tests for Bacteria That Grow Aerobically; Approved Standard—Seventh Edition. Document M7-A7. CLSI, Wayne, Pa., 2006; Clinical Laboratories and Standards Institute. The Gram positive bacterial strains tested include S. aureus (Staphylococcus aureus (Isolate ID ATCC 29213)), E. faecalis (Enterococcus faecalis (Isolate ID ATCC 29212)) and S. pyogenes (Streptococcus pyogenes (Isolate ID ATCC 51339)). The Gram negative bacterial strains tested include H. influenzae (Haemophilus influenzae (Isolate ID ATCC 49247)).

Row | MIC (S. aureus (ATCC 29213)) | MIC (E. faecalis (ATCC 29212)) | MIC (S. pyogenes (ATCC 51339)) | MIC [1] | Structure (SMILES)
1 | ≤ 1 µg/mL | ≤ 1 µg/mL | ≤ 1 µg/mL | ≤ 1 µg/mL | CCNC(=O)Nc1cc(Nc2ccc(C#N)cc2)c(C(=O)Nc2ccc(CC(C)(C)C(=O)O)cc2)cn1 [Compound 188, 3-{4-[({4-[(4-cyanophenyl)amino]-6-[(ethylcarbamoyl)amino]pyridin-3-yl}carbonyl)amino]phenyl}-2,2-dimethylpropanoic acid]
2 | ≤ 1 µg/mL | ≤ 1 µg/mL | ≤ 1 µg/mL | ≤ 1 µg/mL | CCNC(=O)Nc1cc(Nc2cc(F)c(F)c(F)c2)c(C(=O)Nc2ccc(CCC(=O)O)cc2)cn1 [Compound 189]
3 | ≤ 1 µg/mL | ≤ 1 µg/mL | ≤ 1 µg/mL | ≤ 1 µg/mL | CCNC(=O)Nc1cc(Nc2cccc(F)c2)c(C(=O)Nc2ccc(CCC(=O)O)cc2)cn1 [Compound 221, 3-{4-[({6-[(ethylcarbamoyl)amino]-4-[(3-fluorophenyl)amino]pyridin-3-yl}carbonyl)amino]phenyl}propanoic acid]
4 | ≤ 1 µg/mL | ≤ 1 µg/mL | ≤ 1 µg/mL | ≤ 1 µg/mL | CCNC(=O)Nc1cc(Nc2ccc(F)c(F)c2)c(C(=O)Nc2ccc(CCC(=O)O)cc2)cn1 [Compound 220, 3-{4-[({4-[(3,4-difluorophenyl)amino]-6-[(ethylcarbamoyl)amino]pyridin-3-yl}carbonyl)amino]phenyl}propanoic acid]
5 | ≤ 1 µg/mL | ≤ 1 µg/mL | ≤ 1 µg/mL | 4 µg/mL (≈ 8.27 µM) | CCNC(=O)Nc1cc(Nc2cc(F)cc(F)c2)c(C(=O)Nc2ccc(CCC(=O)O)cc2)cn1 [Compound 235, 3-{4-[({4-[(3,5-difluorophenyl)amino]-6-[(ethylcarbamoyl)amino]pyridin-3-yl}carbonyl)amino]phenyl}propanoic acid]
6 | ≤ 1 µg/mL | ≤ 1 µg/mL | ≤ 1 µg/mL | ≤ 1 µg/mL | CCNC(=O)Nc1cc(Nc2ccc(F)c(Cl)c2)c(C(=O)Nc2ccc(CCC(=O)O)cc2)cn1 [Compound 229, 3-{4-[({4-[(3-chloro-4-fluorophenyl)amino]-6-[(ethylcarbamoyl)amino]pyridin-3-yl}carbonyl)amino]phenyl}propanoic acid]
7 | ≤ 1 µg/mL | ≤ 1 µg/mL | ≤ 1 µg/mL | ≤ 1 µg/mL | CCNC(=O)Nc1cc(Nc2ccc(C(=O)OC)cc2)c(C(=O)Nc2ccc(CC(C)(C)C(=O)O)cc2)cn1 [Compound 196]
8 | 2 µg/mL (≈ 4 µM) | ≤ 1 µg/mL | – | 2 µg/mL (≈ 4 µM) | CCNC(=O)Nc1cc(Nc2cccc(C#N)c2)c(C(=O)Nc2ccc(CC(C)(C)C(=O)O)cc2)cn1 [Compound 199, 3-{4-[({4-[(3-cyanophenyl)amino]-6-[(ethylcarbamoyl)amino]pyridin-3-yl}carbonyl)amino]phenyl}-2,2-dimethylpropanoic acid]
9 | ≤ 1 µg/mL | ≤ 1 µg/mL | ≤ 1 µg/mL | ≤ 1 µg/mL | CCNC(=O)Nc1cc(Nc2ccc(Cl)cc2F)c(C(=O)Nc2ccc(CCC(=O)O)cc2)cn1 [Compound 224, 3-{4-[({4-[(4-chloro-2-fluorophenyl)amino]-6-[(ethylcarbamoyl)amino]pyridin-3-yl}carbonyl)amino]phenyl} propanoic acid]
10 | ≤ 1 µg/mL | ≤ 1 µg/mL | – | ≤ 1 µg/mL | CCNC(=O)Nc1cc(Nc2ccc(F)cc2F)c(C(=O)Nc2ccc(CCC(=O)O)cc2)cn1 [Compound 230, 3-{4-[({4-[(2,4-difluorophenyl)amino]-6-[(ethylcarbamoyl)amino]pyridin-3-yl}carbonyl)amino]phenyl}propanoic acid]
11 | ≤ 1 µg/mL | ≤ 1 µg/mL | ≤ 1 µg/mL | ≤ 1 µg/mL | CCNC(=O)Nc1cc(Nc2cc(Cl)cc(Cl)c2)c(C(=O)Nc2ccc(CCC(=O)O)cc2)cn1 [Compound 228, 3-{4-[({4-[(3,5-dichlorophenyl)amino]-6-[(ethylcarbamoyl)amino]pyridin-3-yl}carbonyl)amino]phenyl}propanoic acid]
12 | ≤ 1 µg/mL | ≤ 1 µg/mL | ≤ 1 µg/mL | ≤ 1 µg/mL | CCNC(=O)Nc1cc(Nc2cccc(F)c2)c(C(=O)Nc2ccc(CC(C)(C)C(=O)O)cc2)cn1 [Compound 181, 3-{4-[({6-[(ethylcarbamoyl)amino]-4-[(3-fluorophenyl)amino]pyridin-3-yl}carbonyl)amino]phenyl}-2,2-dimethylpropanoic acid]
13 | ≤ 1 µg/mL | ≤ 1 µg/mL | – | ≤ 1 µg/mL | CCNC(=O)Nc1cc(Nc2cc(F)cc(F)c2)c(C(=O)Nc2ccc(CC(C)(C)C(=O)O)cc2)cn1 [Compound 239, 3-{4-[({4-[(3,5-difluorophenyl)amino]-6-[(ethylcarbamoyl)amino]pyridin-3-yl}carbonyl)amino]phenyl}-2,2-dimethyl propanoic acid]
14 | 2 µg/mL (≈ 4.27 µM) | ≤ 1 µg/mL | – | 4 µg/mL (≈ 8.54 µM) | CCNC(=O)Nc1cc(Nc2ccccc2)c(C(=O)Nc2ccc(NS(C)(=O)=O)cc2)cn1 [Compound 232, 6-[(ethylcarbamoyl)amino]-N-{4-[(methylsulfonyl)amino]phenyl}-4-(phenylamino)pyridine-3-carboxamide]
15 | ≤ 1 µg/mL | ≤ 1 µg/mL | – | ≤ 1 µg/mL | CCNC(=O)Nc1cc(Nc2cccc(C(F)(F)F)c2)c(C(=O)Nc2ccc(CCC(=O)O)cc2)cn1 [Compound 240, 3-(4-{[(6-[(ethylcarbamoyl)amino]-4-{[3-(trifluoromethyl)phenyl]amino}pyridin-3-yl)carbonyl]amino}phenyl)propanoic acid]
16 | 8 µg/mL (≈ 16.5 µM) | ≤ 1 µg/mL | – | 4 µg/mL (≈ 8.26 µM) | CCNC(=O)Nc1cc(Nc2ccccc2)c(C(=O)Nc2ccc(-n3cccc3C(=O)O)cc2)cn1 [Compound 198, 1-{4-[({6-[(ethylcarbamoyl)amino]-4-(phenylamino)pyridin-3-yl}carbonyl)amino]phenyl}-1H-pyrrole-2-carboxylic acid]
